What was measured:
Type in all cases: cell-based
[1] = test system: Mouse embryonic fibroblasts; assay: Bioassay 1: cellular senescence of mouse embryonic fibroblasts; conditions: for up regulation of β-galactosidase: […] after plating
Protocol: (§1) Mouse embryonic fibroblasts are isolated from wild type or Moz heterozygous animals and cultured at 3% oxygen/5% carbon dioxide/92% nitrogen. Cells are plated at a density of 1,020 cells/cm^2 or 2,040 cells/cm^2 or 10,204 cells/cm^2. A reference value for MOZ inhibition is generated through comparison with cells with a complete null mutation of MOZ. The absence of a functional Moz gene leads to senescence in 7-14 days at 3% oxygen.
Cells are plated in triplicate cultures at 10,204 cells/cm^2 in the presence of a test compound. Compounds are tested at 500 nM, 1 μM, 2 μM, 5 μM, 10 μM and 20 μM. Control compounds include those that have a similar structure but show no activity in biochemical assays. After 48 hours, cells are passaged and counted, then replated at 10,204/cm^2. This procedure is continued for 336 hours. The total number of cells produced at each passage is then calculated and compared between treatment groups. […] Cells are analysed by flow cytometry for the absence of markers of apoptosis by staining with propidium iodide and FITC-conjugated annexin V. The level of DNA damaged is assessed by γH2A.X staining, a marker of DNA strand breaks.

[2] = test system: Cdc6 mRNA; assay: Bioassay 2: RT-qPCR of MOZ target genes in mouse embryonic fibroblasts; conditions: 5 μM
Protocol: as §1
Cells are plated in triplicate at 2,040 cells/cm^2 in the presence of a test compound. Compounds are tested at 500 nM, 1 μM, 2 μM, 5 μM, 10 μM and 20 μM. Control compounds include those that have a similar structure but show no activity in biochemical assays. […] RT-qPCR is used to assay the levels of MOZ target genes Ink4a, ink4b, Arf, Cdc6, Cdca8, Cdca2, E2f2, Ezh2, Skp2 and Melk.

[3] = test system: mouse embryonic fibroblasts transfected with control retroviral vector pBABE; assay: Bioassay 4: cumulative cell counts, control vector pBABE; conditions: 5 μm
Protocol: (§2) To test if cells expressing mutant forms of RAS sensitized to senescence induction, MOZ inhibitors were combined with the ectopic expression of KRASG12V. Cells are plated in triplicate cultures at 10,204 cells/cm2 then transfected with control retroviral vectors pBABE or pBABE containing a mutant KrasG12V expression cassette. Cultures were maintained at 3% O2. Selection for transfected cells is achieved using puromycin. Compounds are tested at 0 μM 1 μM, 2.5 μM, and 5 μM. After 48 hours, cells are passaged and counted, then replated at 10,204/cm2. This procedure is continued for 336 hours. The total number of cells produced at each passage is then calculated and compared between treatment groups. Cellular senescence is determined by cell cycle arrest. Comparisons are between cells treated with vehicle only expressing the control vector, cells treated with 5 μM expressing the control vector (concentration shown in bioassay 1 to produce cellular senescence) and cells treated with 0 uM 1 μM, 2.5 μM, and 5 μM expressing the KrasV12 expressing vector vector

[4] = test system: mouse embryonic fibroblasts expressing KrasG12V; assay: Bioassay 4: cumulative cell counts, KrasG12V expression; conditions: for Cumulative Cell Counts: KrasG12V
Protocol: as §2

[5] = test system: wild type pro-B cells; assay: Bioassay 5: pro-B cell colony formation in methylcellulose, wild type
Protocol: (§3) Pro-B cells are purified by positive selection using antiCD19-magnetic beads and fluorescence activated cell sorting using the criterion: cell surface expression of B220, CD19 and cKit but not IgM. After purification, 25,000 pro-B cells are seeded onto 3.5 cm culture dishes plate containing methylcellulose (MethoCult M3630, STEM CELL technologies) for 7 days. After 7 days culture, colonies in which there were more than 50 cells are counted. Subsequently, 190,000 pro-B cells are replated into methylcellulose for another 7 days of culture, followed by enumeration.

[6] = test system: Eμ-Myc pre-leukemia pro-B cells; assay: Bioassay 5: pro-B cell colony formation in methylcellulose, Eμ-Myc
Protocol: as §3

[7] = test system: Wild type pre B cells; assay: Bioassay 6: proliferation curves of pre-B cells on OP9 feeder layer, wild type
From the text: (§4) Pre B cells are isolated from bone marrow according to the criterion: cell surface expression of B220, CD19, but not cKit or IgM. Proliferation curves of wild type pre-B cells and Ep-Myc pre-leukemia pre B cells are generated by counting cells cultured on OP9 cell feeder layer in the presence of the growth factor IL-7. Media is changed every two days and cells are passaged every 4 days.

[8] = test system: Eμ-Myc pre-leukemia pre-B cells; assay: Bioassay 6: proliferation curves of pre-B cells on OP9 feeder layer, Eμ-Myc
From the text: as §4

[9] = test system: Eμ-Myc pre-leukemia pre B cells; assay: Bioassay 7: pre-B cell number dose response, Eμ-Myc
Protocol: Pre B cells are isolated from bone marrow according to the criterion: cell surface expression of B220, CD19, but not cKit or IgM. Pre-B cells are cultured on OP9 cells with IL7 in the presence of compounds at concentrations from 0.01 μM to 20 μM in vitro for 4 days. Cell number is then enumerated and an IC50 is calculated.

[10] = test system: wild type pre-B cells; assay: Bioassay 9: cell cycle analysis (DNA content and BrdU)
Protocol: Pre B cells are isolated from bone marrow according to the criterion: cell surface expression of B220, CD19, but not cKit or IgM. Pre-B cells are cultured on OP9 cells with IL7 in the presence of compounds at various concentrations. The stages of the cell cycle in pre-B cells with and without treatment is analysed using flow cytometry to assay, using a stain for DNA content combined with BrdU to determine the proportion of cells in S phase.

Question: For `Cc1cc(-c2ccccc2)cc(C(=O)NNS(=O)(=O)c2ccccc2)c1F` [Compound 36], which “up regulation of β-galactosidase” value ([1]; 5 μM) is on record?
Answer: Its value is 186%.

Question: What about the “up regulation of β-galactosidase” value ([1]; 10 μM) of the same compound?
Answer: The value was 195%.

Question: What about the “up regulation of β-galactosidase” value ([1]; 20 μM) of the same compound?
Answer: The value was 185%.

Question: And the IC50 ([1]; Mus musculus, Fibroblast, read-out: IC50 (dose at which 50% senescence occur), Bioassay 1)?
Answer: Its IC50 is 1600 nM.

Question: What about the “CDC6 mRNA % control” value [2] of the same compound?
Answer: Its value is 65.1%.

Question: And the “Cumulative Cell Counts” value ([3]; 96 h)?
Answer: Its value is 198333.3.

Question: And the “Cumulative Cell Counts” value ([3]; 336 h)?
Answer: The value was 226600.

Question: What about the “Cumulative Cell Counts” value ([4]; 1 μm, 96 h) of the same compound?
Answer: Its value is 128333.3.

Question: And the “Cumulative Cell Counts” value ([4]; 1 μm, 336 h)?
Answer: Its value is 132000.

Question: What about the “Cumulative Cell Counts” value ([4]; 2.5 μm, 96 h) of the same compound?
Answer: The value was 141666.7.

Question: What about the “Cumulative Cell Counts” value ([4]; 2.5 μm, 336 h) of the same compound?
Answer: The value was 94133.33.

Question: What about the “Cumulative Cell Counts” value ([4]; 5 μm, 96 h) of the same compound?
Answer: The value was 126666.7.

Question: And the “Cumulative Cell Counts” value ([4]; 5 μm, 336 h)?
Answer: The value was 50940.

Question: What about the “cell number in the presence of mutant KRas” value ([4]; in words) of the same compound?
Answer: Its value is “dose dependent decrease in cell number”.

Question: What about the colony number ([5]; 1 μM, wild type pro-B cells, primary colonies) of the same compound?
Answer: The colony number was 161.25.

Question: And the “colony number, secondary colony formation” value ([5]; 1 μM, wild type pro-B cells, secondary colony formation)?
Answer: Its value is 12.25.

Question: And the colony formation ([5]; in words, compared to vehicle)?
Answer: The colony formation was “greatly inhibits colony formation”.

Question: And the colony number ([6]; 1 μM, Eμ-Myc pre-leukemia pro-B cells, primary colonies)?
Answer: The colony number was 104.625.

Question: And the “colony number, secondary colony formation” value ([6]; 1 μM, Eμ-Myc pre-leukemia pro-B cells, secondary colony formation)?
Answer: The value was 9.75.

Question: What about the “proliferation and secondary colony formation of cells expressing the oncogene cMyc” value ([6]; in words) of the same compound?
Answer: Its value is “equally effective in inhibiting proliferation and secondary colony formation”.

Question: What about the “cumulative average cell number” value ([7]; 1 μM, Day 4) of the same compound?
Answer: The value was 54333.

Question: What about the “cumulative average cell number” value ([7]; 1 μM, Day 8) of the same compound?
Answer: The value was 73474.

Question: What about the “cumulative average cell number” value ([7]; 1 μM, Day 12) of the same compound?
Answer: Its value is 15097.

Question: And the “cumulative average cell number” value ([7]; 5 μM, Day 4)?
Answer: Its value is 32555.

Question: And the “cumulative average cell number” value ([7]; 5 μM, Day 8)?
Answer: The value was 19925.

Question: What about the “cumulative average cell number” value ([7]; 5 μM, Day 12) of the same compound?
Answer: The value was 0.000.

Question: What about the “cumulative average cell number” value ([7]; 10 μM, Day 4) of the same compound?
Answer: The value was 26111.

Question: And the “cumulative average cell number” value ([7]; 10 μM, Day 8)?
Answer: Its value is 8192.

Question: And the “cumulative average cell number” value ([7]; 10 μM, Day 12)?
Answer: The value was 0.000.

Question: And the “proliferation of wild type B cell progenitors” value ([7]; in words, compared to vehicle)?
Answer: The value was “inhibited”.

Question: What about the “cumulative average cell number” value ([8]; 0.2 μM, Day 4) of the same compound?
Answer: The value was 373055.

Question: What about the “cumulative average cell number” value ([8]; 0.2 μM, Day 8) of the same compound?
Answer: The value was 1110631.

Question: And the “cumulative average cell number” value ([8]; 0.2 μM, Day 12)?
Answer: The value was 464403.

Question: What about the “cumulative average cell number” value ([8]; 0.2 μM, Day 16) of the same compound?
Answer: Its value is 81501.

Question: What about the “cumulative average cell number” value ([8]; 1 μM, Day 4) of the same compound?
Answer: The value was 172777.

Question: What about the “cumulative average cell number” value ([8]; 1 μM, Day 8) of the same compound?
Answer: The value was 135815.

Question: What about the “cumulative average cell number” value ([8]; 1 μM, Day 12) of the same compound?
Answer: The value was 29983.

Question: What about the “cumulative average cell number” value ([8]; 1 μM, Day 16) of the same compound?
Answer: The value was 0.

Question: What about the “cumulative average cell number” value ([8]; 5 μM, Day 4) of the same compound?
Answer: Its value is 79444.

Question: What about the “cumulative average cell number” value ([8]; 5 μM, Day 8) of the same compound?
Answer: Its value is 33236.

Question: What about the “cumulative average cell number” value ([8]; 5 μM, Day 12) of the same compound?
Answer: The value was 0.

Question: And the “cumulative average cell number” value ([8]; 5 μM, Day 16)?
Answer: The value was 0.

Question: What about the “proliferation of pre-leukaemic B cell progenitors” value ([8]; in words, compared to vehicle) of the same compound?
Answer: Its value is “inhibited”.

Question: What about the IC50 ([9]; B-cell, 96 h, Eμ-Myc pre-leukemia pre B cells, 4 days) of the same compound?
Answer: The IC50 was 421 nM.

Question: What about the “suppression of pre B cell proliferation in cells expressing the cMyc oncogene” value ([9]; in words) of the same compound?
Answer: The value was “effective in suppression of pre B cell proliferation”.

Question: What about the “cells in G0/G1 (BrdU)” value ([10]; 1 μM) of the same compound?
Answer: The value was 54.9.

Question: And the “cells in G2/M (BrdU)” value ([10]; 1 μM)?
Answer: The value was 5.5.

Question: And the “cells in S (BrdU)” value ([10]; 1 μM)?
Answer: Its value is 32.7.

Question: And the “cells in G0/G1” value ([10]; in words)?
Answer: The value was “increase in cells in G0/G1”.

Question: What about the “cells in S-phase” value ([10]; in words) of the same compound?
Answer: Its value is “reduction of cells in S-phase”.

From patent US10829446B2, “Aryl sulfonohydrazides” (MONASH UNIVERSITY, priority 2015, dated 2020)
